{"source": "patent US11352399B2", "about": "“Peptide for toll-like receptor (TLR) inhibition and pharmaceutical composition comprising same” (GENESEN CO., LTD., priority 2017, dated 2022)", "key": {"[1]": {"test_system": "NLRP3 inflammasome", "assay": "IL-1β secretion (ELISA) in LPS/ATP-treated THP1 cells", "format": "cell-based, human", "conditions": "TIP1 and LPS/ATP"}, "[2]": {"molecular_target": "T1, TLR1/2 (Mus musculus, UniProt Q9EPQ1+Q9QUN7)", "T1 construct": "host or cells: RAW 264.7", "T1 sequence (Q9EPQ1 26-795)": "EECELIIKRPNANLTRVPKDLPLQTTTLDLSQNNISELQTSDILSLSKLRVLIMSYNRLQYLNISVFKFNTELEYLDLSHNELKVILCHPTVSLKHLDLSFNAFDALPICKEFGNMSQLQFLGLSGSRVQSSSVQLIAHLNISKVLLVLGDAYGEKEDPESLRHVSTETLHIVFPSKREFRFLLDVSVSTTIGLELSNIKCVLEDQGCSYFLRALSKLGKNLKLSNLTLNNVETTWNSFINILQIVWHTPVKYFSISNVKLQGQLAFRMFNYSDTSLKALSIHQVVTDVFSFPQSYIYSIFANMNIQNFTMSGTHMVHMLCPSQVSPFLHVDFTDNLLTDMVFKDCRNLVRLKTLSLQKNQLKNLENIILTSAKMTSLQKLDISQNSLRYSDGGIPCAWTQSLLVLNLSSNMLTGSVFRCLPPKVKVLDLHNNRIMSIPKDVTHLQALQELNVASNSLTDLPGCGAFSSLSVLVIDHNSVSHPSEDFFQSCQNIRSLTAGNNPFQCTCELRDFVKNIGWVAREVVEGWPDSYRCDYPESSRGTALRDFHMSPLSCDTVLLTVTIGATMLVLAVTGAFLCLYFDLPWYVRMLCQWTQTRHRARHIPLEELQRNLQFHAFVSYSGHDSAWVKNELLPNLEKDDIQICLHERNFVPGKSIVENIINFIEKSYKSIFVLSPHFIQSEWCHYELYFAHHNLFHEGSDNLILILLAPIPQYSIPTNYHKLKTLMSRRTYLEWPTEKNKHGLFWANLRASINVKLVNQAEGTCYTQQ", "T1 sequence (Q9QUN7 25-784)": "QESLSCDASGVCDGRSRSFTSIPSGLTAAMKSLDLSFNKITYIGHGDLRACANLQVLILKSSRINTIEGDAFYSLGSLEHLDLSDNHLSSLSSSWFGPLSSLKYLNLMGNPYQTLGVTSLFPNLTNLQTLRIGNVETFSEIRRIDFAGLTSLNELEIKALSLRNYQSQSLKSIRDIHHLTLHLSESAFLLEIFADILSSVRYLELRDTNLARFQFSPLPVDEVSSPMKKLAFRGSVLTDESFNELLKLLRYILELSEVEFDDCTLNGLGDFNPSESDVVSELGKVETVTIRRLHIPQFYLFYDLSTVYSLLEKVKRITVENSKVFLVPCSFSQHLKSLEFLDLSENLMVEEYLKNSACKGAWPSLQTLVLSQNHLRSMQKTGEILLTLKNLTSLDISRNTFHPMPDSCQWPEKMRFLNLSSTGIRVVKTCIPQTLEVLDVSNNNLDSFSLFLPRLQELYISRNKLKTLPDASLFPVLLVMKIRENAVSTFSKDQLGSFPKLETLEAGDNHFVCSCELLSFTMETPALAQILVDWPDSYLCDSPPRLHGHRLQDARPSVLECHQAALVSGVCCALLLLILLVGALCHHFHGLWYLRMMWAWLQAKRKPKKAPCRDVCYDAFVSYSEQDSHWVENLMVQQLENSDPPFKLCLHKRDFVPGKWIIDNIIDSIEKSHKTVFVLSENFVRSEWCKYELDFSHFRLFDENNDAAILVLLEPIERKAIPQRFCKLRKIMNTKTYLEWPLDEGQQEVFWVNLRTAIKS", "assay": "TNF-α secretion in RAW 264.7 cells with PAM3CSK4", "format": "cell-based"}, "[3]": {"molecular_target": "T2, TLR9 (Mus musculus, UniProt Q9EQU3)", "T2 construct": "host or cells: RAW 264.7", "T2 sequence (Q9EQU3 26-1032)": "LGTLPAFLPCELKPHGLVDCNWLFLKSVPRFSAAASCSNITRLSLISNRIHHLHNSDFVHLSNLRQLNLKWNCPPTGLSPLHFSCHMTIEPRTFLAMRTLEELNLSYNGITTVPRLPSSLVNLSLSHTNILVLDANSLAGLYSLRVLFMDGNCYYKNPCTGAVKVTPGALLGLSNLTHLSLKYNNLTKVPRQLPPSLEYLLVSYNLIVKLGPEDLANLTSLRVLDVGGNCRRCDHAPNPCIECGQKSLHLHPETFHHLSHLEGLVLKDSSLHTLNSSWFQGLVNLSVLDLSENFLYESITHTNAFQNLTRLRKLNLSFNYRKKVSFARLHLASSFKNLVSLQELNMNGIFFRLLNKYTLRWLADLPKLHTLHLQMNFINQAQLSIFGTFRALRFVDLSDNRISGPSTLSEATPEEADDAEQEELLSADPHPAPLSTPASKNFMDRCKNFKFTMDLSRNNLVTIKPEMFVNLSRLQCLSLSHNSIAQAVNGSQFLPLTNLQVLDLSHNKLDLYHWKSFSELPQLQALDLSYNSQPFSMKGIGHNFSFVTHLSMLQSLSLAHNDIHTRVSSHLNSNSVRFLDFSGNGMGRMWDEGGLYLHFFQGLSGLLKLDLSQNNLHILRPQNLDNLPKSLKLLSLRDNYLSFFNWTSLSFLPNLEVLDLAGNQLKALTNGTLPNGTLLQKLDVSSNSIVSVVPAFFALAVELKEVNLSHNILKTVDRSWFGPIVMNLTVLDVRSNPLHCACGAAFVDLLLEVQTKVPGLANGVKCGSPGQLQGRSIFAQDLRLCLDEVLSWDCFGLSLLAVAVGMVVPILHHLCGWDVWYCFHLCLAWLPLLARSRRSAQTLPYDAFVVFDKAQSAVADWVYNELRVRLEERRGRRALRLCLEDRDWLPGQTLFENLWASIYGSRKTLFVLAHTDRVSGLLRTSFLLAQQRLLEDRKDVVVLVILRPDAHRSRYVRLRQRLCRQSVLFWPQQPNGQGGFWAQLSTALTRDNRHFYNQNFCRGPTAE", "assay": "TNF-α secretion in RAW 264.7 cells with CpG-ODN", "format": "cell-based"}, "[4]": {"test_system": "TLR4 signaling pathways", "assay": "Western blotting of NF-κB and MAPK in LPS-treated hPBMC cells", "format": "cell-based, human", "conditions": "LPS together with TIP1", "experimental": "In order to perform Western blotting, a pre-protein extraction solution (M-PER, Thermo Fisher Scientific Inc.) was mixed with a protease and phosphatase inhibitor mixture, and was added to RAW 264.7 cell or hPBMC cell pellets. The pellets were cooled for 10 minutes, and then the lysates were centrifuged at 16000×g for 10 minutes. Then, NE-PER nuclear and cytoplasmic extraction reagents (Thermo Fisher Scientific Inc.) were used to extract cytoplasmic and nuclear proteins, respectively, and a BCA kit (Sigma-Alderich Co. LLC) was used to measure concentrations of the proteins. Subsequently, the same amounts of proteins were developed on SDS-polyacrylamide gels, and electrophoresis was performed using the Mini-PROTEAN Tetra Cell two-dimensional electrophoresis system (Bio-Rad Laboratories, Hercules, Calif., USA). The membrane was immunoblotted with primary antibodies by gentle shaking overnight at a temperature of 4° C. […] Then, after thorough shaking with PBST, the membrane was incubated with anti-mouse/-rabbit HRP-conjugated secondary antibodies (Thermo Fisher Scientific Inc.) for 2 hours; and the proteins were detected with SuperSignal West Pico ECL solution (Thermo Fisher Scientific Inc.) and were visualized with the Fuji LAS-3000 system (Fujifilm, Tokyo, Japan). […]"}, "[5]": {"test_system": "LPS-injected C57BL/6J mice", "assay": "Plasma cytokine secretion in LPS-injected mice", "format": "in vivo, mouse", "conditions": "TIP1 10 nmol/g i.p., 1 hour later LPS 5 μg/g, blood 1 or 2 hours", "experimental": "All animal experiments were conducted under approval of the Institutional Animal Care and Use Committee (KHNMC AP 2016-006). […] The control was injected with the same volume of PBS. Subsequently, the plasma was isolated through centrifugation from the mouse blood and stored at −80° C. until analysis of secretion levels. TNF-α, IL-12p40 (diluted at 1:100), and IL-6 (diluted at 1:100) levels in the plasma were measured using mouse TNF-α, IL-12p40, IL-6 ELISA MAX Deluxe ELISA kits (BioLegend, San Diego, Calif., USA). Absorbance was measured at 450 nm using a microplate reader spectrophotometer (Molecular Devices In.), and the results were analyzed using Softmax Pro 5.3 software (Molecular Devices Inc.). The results are illustrated in FIGS. 14(a)-14(c)."}, "[6]": {"test_system": "RAW 264.7 cells", "assay": "NO secretion level in RAW 264.7 culture supernatant", "format": "cell-based, mouse", "conditions": "TIP1 and LPS", "experimental": "RAW 264.7 cells and mBMDM cells were dispensed into 96-well plates (BD Biosciences) to a cell number of 2×10^5 cells/well and incubated overnight. Then, a NO level of the culture supernatant was measured using a NO detection kit (iNtRON Biotechnology Inc., Seongnam, Korea). Absorbance was measured at 550 nm using a microplate reader spectrophotometer (Molecular Devices Inc.), and the results were analyzed using Softmax Pro 5.3 software (Molecular Devices Inc.).\nIn addition, according to the method described in Example 2-7, a NO level in the culture supernatant of RAW 264.7 cells was measured using a NO detection kit. The results are illustrated in FIGS. 5(a)-5(c)."}}, "data": [{"sequence": "RQIKIWFQNRRMKWKKSHCRVLLI (TIP1)", "values": [{"measurement": "secretion level of IL-1β", "setting": "[1]", "value": "decreased"}, {"measurement": "secretion level of TNF-α", "setting": "[2]", "value": "decreased"}, {"measurement": "secretion level of TNF-α", "setting": "[3]", "value": "decreased"}, {"measurement": "MAPK activity (phosphorylation of ERK, JNK, p38)", "setting": "[4]", "value": "MAPK activity is inhibited"}, {"measurement": "NF-κB activity (Iκ-Bα, Western blotting)", "setting": "[4]", "value": "NF-κB activity was inhibited"}, {"measurement": "secretion level of IL-6 in plasma", "setting": "[5]", "value": "remarkably decreased"}, {"measurement": "secretion level of IL-12p40 in plasma", "setting": "[5]", "value": "remarkably decreased"}, {"measurement": "secretion level of TNF-α in plasma", "setting": "[5]", "value": "remarkably decreased"}, {"measurement": "extracellular secretion of NO", "setting": "[6]", "value": "effectively decreased"}]}]}
